Laboratory results: PubChem BioAssay (NCI)
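Protocol summary: plate cells (96-well), add compound at 5 concentrations, incubate 48 h, interpolate endpoints linearly. TGI: concentration producing complete growth inhibition.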

Key:
Experiment in all cases: NCI anticancer screen, dose series, 48 h
EKVX NSCLC = system: EKVX NSCLC
KM12 colon = system: KM12 colon
IGROV1 ovarian = system: IGROV1 ovarian
SF-268 CNS = system: SF-268 CNS
SK-MEL-5 melanoma = system: SK-MEL-5 melanoma
T-47D breast = system: T-47D breast
HCC-2998 colon = system: HCC-2998 colon
NCI-H522 lung = system: NCI-H522 lung
SNB-75 CNS = system: SNB-75 CNS
U251 CNS = system: U251 CNS
HCT-15 colon = system: HCT-15 colon
MCF7 breast = system: MCF7 breast
OVCAR-5 ovarian = system: OVCAR-5 ovarian
OVCAR-8 ovarian = system: OVCAR-8 ovarian
MDA-N = system: MDA-N
SNB-19 CNS = system: SNB-19 CNS
MDA-MB-231 breast = system: MDA-MB-231 breast
HOP-62 NSCLC = system: HOP-62 NSCLC
HL-60(TB) leukemia = system: HL-60(TB) leukemia
CCRF-CEM leukemia = system: CCRF-CEM leukemia
MDA-MB-435 = system: MDA-MB-435
NCI/ADR-RES ovarian = system: NCI/ADR-RES ovarian
PC-3 prostate = system: PC-3 prostate
ACHN renal = system: ACHN renal
SK-OV-3 ovarian = system: SK-OV-3 ovarian
MOLT-4 leukemia = system: MOLT-4 leukemia
HS 578T breast = system: HS 578T breast
SN12C renal = system: SN12C renal
COLO 205 colon = system: COLO 205 colon
K-562 leukemia = system: K-562 leukemia
UO-31 renal = system: UO-31 renal
RPMI-8226 leukemia = system: RPMI-8226 leukemia
786-0 renal = system: 786-0 renal
HCT-116 colon = system: HCT-116 colon
SF-295 CNS = system: SF-295 CNS
SF-539 CNS = system: SF-539 CNS
UACC-257 melanoma = system: UACC-257 melanoma
SK-MEL-28 melanoma = system: SK-MEL-28 melanoma
OVCAR-4 ovarian = system: OVCAR-4 ovarian
A549 NSCLC = system: A549 NSCLC
NCI-H460 lung = system: NCI-H460 lung
SW-620 colon = system: SW-620 colon
M14 melanoma = system: M14 melanoma
TK-10 renal = system: TK-10 renal
NCI-H23 lung = system: NCI-H23 lung
NCI-H226 lung = system: NCI-H226 lung
A498 renal = system: A498 renal
HOP-92 NSCLC = system: HOP-92 NSCLC
RXF 393 renal = system: RXF 393 renal
CAKI-1 renal = system: CAKI-1 renal
HT29 colon = system: HT29 colon
LOX IMVI melanoma = system: LOX IMVI melanoma
MALME-3M melanoma = system: MALME-3M melanoma
UACC-62 melanoma = system: UACC-62 melanoma
DU-145 prostate = system: DU-145 prostate
OVCAR-3 ovarian = system: OVCAR-3 ovarian
BT-549 breast = system: BT-549 breast
SK-MEL-2 melanoma = system: SK-MEL-2 melanoma
SR leukemia = system: SR leukemia

SMILES: COc1cc(C2c3cc4c(cc3[C@@H](Nc3ccc(F)cc3)C3CO[C@@H](O)[C@H]23)OCO4)cc(OC)c1O (stereo partly drawn)
- TGI (EKVX NSCLC): > 25 µM
- TGI (KM12 colon): > 25 µM
- TGI (IGROV1 ovarian): > 25 µM
- TGI (SF-268 CNS): > 25 µM
- TGI (SK-MEL-5 melanoma): > 25 µM
- TGI (T-47D breast): > 25 µM
- TGI (HCC-2998 colon): > 25 µM
- TGI (NCI-H522 lung): 15 µM
- TGI (SNB-75 CNS): > 25 µM
- TGI (U251 CNS): 8.47 µM
- TGI (HCT-15 colon): > 25 µM
- TGI (MCF7 breast): > 25 µM
- TGI (OVCAR-5 ovarian): 12.8 µM
- TGI (OVCAR-8 ovarian): > 25 µM
- TGI (MDA-N): > 25 µM
- TGI (SNB-19 CNS): > 25 µM
- TGI (MDA-MB-231 breast): > 25 µM
- TGI (HOP-62 NSCLC): > 25 µM
- TGI (HL-60(TB) leukemia): 5.23 µM
- TGI (CCRF-CEM leukemia): 7.72 µM
- TGI (MDA-MB-435): > 25 µM
- TGI (NCI/ADR-RES ovarian): > 25 µM
- TGI (PC-3 prostate): > 25 µM
- TGI (ACHN renal): 6.88 µM
- TGI (SK-OV-3 ovarian): > 25 µM
- TGI (MOLT-4 leukemia): 4.43 µM
- TGI (HS 578T breast): 14.7 µM
- TGI (SN12C renal): > 25 µM
- TGI (COLO 205 colon): > 25 µM
- TGI (K-562 leukemia): > 25 µM
- TGI (UO-31 renal): 8.28 µM
- TGI (RPMI-8226 leukemia): > 25 µM
- TGI (786-0 renal): > 25 µM
- TGI (HCT-116 colon): > 25 µM
- TGI (SF-295 CNS): 10.3 µM
- TGI (SF-539 CNS): 12.6 µM
- TGI (UACC-257 melanoma): > 25 µM
- TGI (SK-MEL-28 melanoma): > 25 µM
- TGI (OVCAR-4 ovarian): > 25 µM
- TGI (A549 NSCLC): > 25 µM
- TGI (NCI-H460 lung): > 25 µM
- TGI (SW-620 colon): > 25 µM
- TGI (M14 melanoma): > 25 µM
- TGI (TK-10 renal): > 25 µM

SMILES: Cc1ccc2c(/C=C/c3ccc(N(C)C)cc3)ccnc2c1C
- TGI (NCI-H23 lung): > 100 µM
- TGI (NCI-H226 lung): > 100 µM
- TGI (EKVX NSCLC): > 100 µM
- TGI (KM12 colon): 72.3 µM
- TGI (A498 renal): > 100 µM
- TGI (HOP-92 NSCLC): 57.1 µM
- TGI (SF-268 CNS): > 100 µM
- TGI (RXF 393 renal): 48.4 µM
- TGI (SK-MEL-5 melanoma): 43.2 µM
- TGI (CAKI-1 renal): > 100 µM
- TGI (T-47D breast): > 100 µM
- TGI (HCC-2998 colon): 95.6 µM
- TGI (NCI-H522 lung): 63.9 µM
- TGI (SNB-75 CNS): 38.5 µM
- TGI (U251 CNS): > 100 µM
- TGI (HCT-15 colon): > 100 µM
- TGI (MCF7 breast): 61.3 µM
- TGI (OVCAR-5 ovarian): > 100 µM
- TGI (OVCAR-8 ovarian): 60.8 µM
- TGI (MDA-N): > 100 µM
- TGI (SNB-19 CNS): > 100 µM
- TGI (MDA-MB-231 breast): > 100 µM
- TGI (HOP-62 NSCLC): > 100 µM
- TGI (HL-60(TB) leukemia): 80.7 µM
- TGI (CCRF-CEM leukemia): > 100 µM
- TGI (MDA-MB-435): > 100 µM
- TGI (HT29 colon): 62.3 µM
- TGI (NCI/ADR-RES ovarian): > 100 µM
- TGI (PC-3 prostate): 64.3 µM
- TGI (LOX IMVI melanoma): > 100 µM
- TGI (ACHN renal): 96.7 µM
- TGI (SK-OV-3 ovarian): 67.9 µM
- TGI (MOLT-4 leukemia): > 100 µM
- TGI (HS 578T breast): > 100 µM
- TGI (MALME-3M melanoma): 40.6 µM
- TGI (SN12C renal): > 100 µM
- TGI (COLO 205 colon): 55.6 µM
- TGI (UACC-62 melanoma): 73.1 µM
- TGI (K-562 leukemia): > 100 µM
- TGI (UO-31 renal): 54 µM
- TGI (RPMI-8226 leukemia): 31 µM
- TGI (786-0 renal): > 100 µM
- TGI (HCT-116 colon): > 100 µM
- TGI (SF-295 CNS): > 100 µM
- TGI (SF-539 CNS): > 100 µM
- TGI (UACC-257 melanoma): > 100 µM
- TGI (DU-145 prostate): > 100 µM
- TGI (SK-MEL-28 melanoma): 52.9 µM
- TGI (A549 NSCLC): > 100 µM
- TGI (NCI-H460 lung): > 100 µM
- TGI (OVCAR-3 ovarian): > 100 µM
- TGI (SW-620 colon): > 100 µM
- TGI (M14 melanoma): > 100 µM
- TGI (TK-10 renal): 43.6 µM

SMILES: O=C(Cc1cc(=O)oc2cc(O)ccc12)N/N=C/c1ccc(N(CCCl)CCCl)cc1
- TGI (NCI-H23 lung): 69.4 µM
- TGI (NCI-H226 lung): 35 µM
- TGI (EKVX NSCLC): 44.1 µM
- TGI (KM12 colon): > 100 µM
- TGI (IGROV1 ovarian): 41.9 µM
- TGI (A498 renal): 41.2 µM
- TGI (HOP-92 NSCLC): 43.8 µM
- TGI (SF-268 CNS): 30.4 µM
- TGI (BT-549 breast): 30.8 µM
- TGI (RXF 393 renal): 31 µM
- TGI (SK-MEL-5 melanoma): 27.7 µM
- TGI (CAKI-1 renal): 31.7 µM
- TGI (HCC-2998 colon): > 100 µM
- TGI (NCI-H522 lung): 45 µM
- TGI (SNB-75 CNS): 38.5 µM
- TGI (U251 CNS): 34.1 µM
- TGI (HCT-15 colon): > 100 µM
- TGI (MCF7 breast): 41.8 µM
- TGI (OVCAR-5 ovarian): 55 µM
- TGI (OVCAR-8 ovarian): 29.4 µM
- TGI (MDA-N): 63 µM
- TGI (SNB-19 CNS): 42.4 µM
- TGI (MDA-MB-231 breast): 33.3 µM
- TGI (HOP-62 NSCLC): 41.4 µM
- TGI (HL-60(TB) leukemia): 37.6 µM
- TGI (CCRF-CEM leukemia): 74.7 µM
- TGI (MDA-MB-435): 47.7 µM
- TGI (HT29 colon): 45.1 µM
- TGI (NCI/ADR-RES ovarian): > 100 µM
- TGI (PC-3 prostate): 35.2 µM
- TGI (LOX IMVI melanoma): 36.4 µM
- TGI (ACHN renal): 32.7 µM
- TGI (MOLT-4 leukemia): 94.6 µM
- TGI (HS 578T breast): 57.3 µM
- TGI (MALME-3M melanoma): 40.9 µM
- TGI (SN12C renal): 41.3 µM
- TGI (COLO 205 colon): 72 µM
- TGI (K-562 leukemia): 82.1 µM
- TGI (UO-31 renal): 46.2 µM
- TGI (RPMI-8226 leukemia): 43.6 µM
- TGI (786-0 renal): 37.3 µM
- TGI (SK-MEL-2 melanoma): > 100 µM
- TGI (HCT-116 colon): 30.2 µM
- TGI (SF-295 CNS): 34.3 µM
- TGI (SF-539 CNS): 35.6 µM
- TGI (UACC-257 melanoma): 63.1 µM
- TGI (DU-145 prostate): 41 µM
- TGI (SK-MEL-28 melanoma): 28.6 µM
- TGI (OVCAR-4 ovarian): 87.3 µM
- TGI (A549 NSCLC): 32 µM
- TGI (NCI-H460 lung): 29.4 µM
- TGI (OVCAR-3 ovarian): 33.1 µM
- TGI (SW-620 colon): > 100 µM
- TGI (M14 melanoma): 37.8 µM
- TGI (SR leukemia): 40.5 µM
